Test results taken from ChEMBL document CHEMBL4184210, “Optimization of novel monobactams with activity against carbapenem-resistant Enterobacteriaceae - Identification of LYS228” (Bioorg Med Chem Lett, 2018).

Legend:
Pseudomonas aeruginosa [1] = assay: Antimicrobial activity against Pseudomonas aeruginosa expressing delta-mexB/mexXY/delta-ampDh2/ delta-ampD by CLSI broth microdilution method; format: functional
Escherichia coli [2] = assay: microbe, parasite or virus in culture
Description: Antimicrobial activity against Escherichia coli expressing beta-lactamase NMC-A by CLSI broth microdilution method

Escherichia coli [3] = assay: microbe, parasite or virus in culture; remark: listed apart in the source
Description: Antimicrobial activity against Escherichia coli expressing beta-lactamase TEM-10 by CLSI broth microdilution method

Pseudomonas aeruginosa [4] = assay: Antimicrobial activity against Pseudomonas aeruginosa expressing nalB/delta-mexXY/delta-mexCDoprJ/delta-ampC by CLSI broth microdilution method; format: functional
Escherichia coli [5] = assay: microbe, parasite or virus in culture; remark: listed apart in the source
Description: Antimicrobial activity against Escherichia coli expressing beta-lactamase KPC-3 by CLSI broth microdilution method

Escherichia coli [6] = assay: microbe, parasite or virus in culture; remark: listed apart in the source
Description: Antimicrobial activity against Escherichia coli expressing beta-lactamase CTXM-15 by CLSI broth microdilution method

Pseudomonas aeruginosa [7] = assay: Antimicrobial activity against Pseudomonas aeruginosa expressing delta-mexB/delta-mexXY/delta-mexCD and delta-ampC mutant by CLSI broth microdilution method; format: functional
Pseudomonas aeruginosa [8] = assay: Antimicrobial activity against Pseudomonas aeruginosa ATCC 27853 by CLSI broth microdilution method; format: functional
Escherichia coli [9] = assay: microbe, parasite or virus in culture; remark: listed apart in the source
Description: Antimicrobial activity against Escherichia coli expressing beta-lactamase Oxa-10 by CLSI broth microdilution method

Escherichia coli [10] = assay: microbe, parasite or virus in culture; remark: listed apart in the source
Description: Antimicrobial activity against Escherichia coli expressing beta-lactamase IMI-1 by CLSI broth microdilution method

Escherichia coli [11] = assay: microbe, parasite or virus in culture; remark: listed apart in the source
Description: Antimicrobial activity against Escherichia coli expressing beta-lactamase Oxa-40 by CLSI broth microdilution method

[12] = molecular target: GABA A receptor alpha-2/beta-2/gamma-2 (Homo sapiens) (UniProt P47870+P18507+P47869); assay: Inhibition of recombinant human GABA A alpha2beta2gamma2 receptor expressed in CHO-K1 cells at 300 uM incubated at room temperature for 15 mins before the GABA addition fluorescence spectrometry; format: cell-based
Escherichia coli [13] = assay: microbe, parasite or virus in culture; remark: listed apart in the source
Description: Antimicrobial activity against Escherichia coli expressing beta-lactamase DHA by CLSI broth microdilution method

Escherichia coli [14] = assay: microbe, parasite or virus in culture; remark: listed apart in the source
Description: Antimicrobial activity against Escherichia coli expressing beta-lactamase VEB-7 by CLSI broth microdilution method

Escherichia coli [15] = assay: microbe, parasite or virus in culture; remark: listed apart in the source
Description: Antimicrobial activity against Escherichia coli expressing beta-lactamase GES-1 by CLSI broth microdilution method

Escherichia coli [16] = assay: Antimicrobial activity against Escherichia coli expressing beta-lactamase KPC-2 by CLSI broth microdilution method; format: functional
Escherichia coli [17] = assay: microbe, parasite or virus in culture; remark: listed apart in the source
Description: Antimicrobial activity against Escherichia coli expressing beta-lactamase Oxa-160 by CLSI broth microdilution method

Escherichia coli [18] = assay: microbe, parasite or virus in culture; remark: listed apart in the source
Description: Antimicrobial activity against Escherichia coli expressing beta-lactamase AmpC by CLSI broth microdilution method

Escherichia coli [19] = assay: microbe, parasite or virus in culture; remark: listed apart in the source
Description: Antimicrobial activity against Escherichia coli expressing beta-lactamase TEM-47 by CLSI broth microdilution method

Escherichia coli [20] = assay: microbe, parasite or virus in culture; remark: listed apart in the source
Description: Antimicrobial activity against Escherichia coli expressing beta-lactamase P99 by CLSI broth microdilution method

Escherichia coli [21] = assay: microbe, parasite or virus in culture; remark: listed apart in the source
Description: Antimicrobial activity against Escherichia coli expressing beta-lactamase VEB-4 by CLSI broth microdilution method

Escherichia coli [22] = assay: microbe, parasite or virus in culture; remark: listed apart in the source
Description: Antimicrobial activity against Escherichia coli expressing beta-lactamase Oxa-146 by CLSI broth microdilution method

Escherichia coli [23] = assay: Antimicrobial activity against Escherichia coli expressing beta-lactamase TEM-1 by CLSI broth microdilution method; format: functional
Escherichia coli [24] = assay: microbe, parasite or virus in culture; remark: listed apart in the source
Description: Antimicrobial activity against Escherichia coli expressing beta-lactamase KPC-4 by CLSI broth microdilution method

Escherichia coli [25] = assay: microbe, parasite or virus in culture; remark: listed apart in the source
Description: Antimicrobial activity against wild type Escherichia coli by CLSI broth microdilution method

Escherichia coli [26] = assay: microbe, parasite or virus in culture; remark: listed apart in the source
Description: Antimicrobial activity against Escherichia coli expressing beta-lactamase PER-2 by CLSI broth microdilution method

Escherichia coli [27] = assay: microbe, parasite or virus in culture; remark: listed apart in the source
Description: Antimicrobial activity against Escherichia coli expressing beta-lactamase TEM-16 by CLSI broth microdilution method

Escherichia coli [28] = assay: microbe, parasite or virus in culture; remark: listed apart in the source
Description: Antimicrobial activity against Escherichia coli expressing beta-lactamase CMY-2 by CLSI broth microdilution method

Escherichia coli [29] = assay: microbe, parasite or virus in culture; remark: listed apart in the source
Description: Antimicrobial activity against Escherichia coli expressing beta-lactamase Oxa-225 by CLSI broth microdilution method

Escherichia coli [30] = assay: microbe, parasite or virus in culture; remark: listed apart in the source
Description: Antimicrobial activity against Escherichia coli expressing beta-lactamase MIR-1 by CLSI broth microdilution method

Escherichia coli [31] = assay: microbe, parasite or virus in culture; remark: listed apart in the source
Description: Antimicrobial activity against Escherichia coli expressing beta-lactamase SPM-1 by CLSI broth microdilution method

Escherichia coli [32] = assay: microbe, parasite or virus in culture; remark: listed apart in the source
Description: Antimicrobial activity against Escherichia coli expressing beta-lactamase Oxa-51 by CLSI broth microdilution method

Escherichia coli [33] = assay: Antimicrobial activity against Escherichia coli expressing beta-lactamase NDM-5 by CLSI broth microdilution method; format: functional
Escherichia coli [34] = assay: Antimicrobial activity against Escherichia coli expressing beta-lactamase VEB-1 by CLSI broth microdilution method; format: functional
Escherichia coli [35] = assay: microbe, parasite or virus in culture; remark: listed apart in the source
Description: Antimicrobial activity against Escherichia coli expressing beta-lactamase IMP-1 by CLSI broth microdilution method

Escherichia coli [36] = assay: Antimicrobial activity against Escherichia coli expressing beta-lactamase NDM-1 by CLSI broth microdilution method; format: functional
Escherichia coli [37] = assay: microbe, parasite or virus in culture; remark: listed apart in the source
Description: Antimicrobial activity against Escherichia coli expressing beta-lactamase Oxa-23 by CLSI broth microdilution method

Escherichia coli [38] = assay: microbe, parasite or virus in culture; remark: listed apart in the source
Description: Antimicrobial activity against Escherichia coli expressing beta-lactamase VIM-1 by CLSI broth microdilution method

Escherichia coli [39] = assay: microbe, parasite or virus in culture; remark: listed apart in the source
Description: Antimicrobial activity against Escherichia coli expressing beta-lactamase PER-4 by CLSI broth microdilution method

Escherichia coli [40] = assay: microbe, parasite or virus in culture; remark: listed apart in the source
Description: Antimicrobial activity against Escherichia coli expressing beta-lactamase CTXM-3 by CLSI broth microdilution method

Escherichia coli [41] = assay: microbe, parasite or virus in culture; remark: listed apart in the source
Description: Antimicrobial activity against Escherichia coli expressing beta-lactamase Oxa-181 by CLSI broth microdilution method

Escherichia coli [42] = assay: microbe, parasite or virus in culture; remark: listed apart in the source
Description: Antimicrobial activity against Escherichia coli expressing beta-lactamase PER-1 by CLSI broth microdilution method

Escherichia coli [43] = assay: microbe, parasite or virus in culture; remark: listed apart in the source
Description: Antimicrobial activity against Escherichia coli expressing beta-lactamase KPC-8 by CLSI broth microdilution method

Escherichia coli [44] = assay: microbe, parasite or virus in culture; remark: listed apart in the source
Description: Antimicrobial activity against Escherichia coli expressing beta-lactamase TEM-121 by CLSI broth microdilution method

Escherichia coli [45] = assay: microbe, parasite or virus in culture; remark: listed apart in the source
Description: Antimicrobial activity against Escherichia coli expressing beta-lactamase TEM-24 by CLSI broth microdilution method

Escherichia coli [46] = assay: microbe, parasite or virus in culture; remark: listed apart in the source
Description: Antimicrobial activity against Escherichia coli expressing beta-lactamase GIM-1 by CLSI broth microdilution method

Escherichia coli [47] = assay: microbe, parasite or virus in culture; remark: listed apart in the source
Description: Antimicrobial activity against Escherichia coli expressing beta-lactamase SME-1 by CLSI broth microdilution method

Escherichia coli [48] = assay: microbe, parasite or virus in culture; remark: listed apart in the source
Description: Antimicrobial activity against Escherichia coli expressing beta-lactamase SHV-12 by CLSI broth microdilution method

Escherichia coli [49] = assay: microbe, parasite or virus in culture; remark: listed apart in the source
Description: Antimicrobial activity against Escherichia coli expressing beta-lactamase Oxa-48 by CLSI broth microdilution method

Escherichia coli [50] = assay: microbe, parasite or virus in culture; remark: listed apart in the source
Description: Antimicrobial activity against Escherichia coli expressing beta-lactamase Oxa-18 by CLSI broth microdilution method

Mus musculus = assay: Toxicity in CD1 mouse assessed as induction of convulsion at 100 mg/kg, icv measured 1 hr after post dose; format: organism-based; details: in vivo, icv_or_intrathecal
Enterobacteriaceae = assay: Antimicrobial activity against ESBL, KPC and MBL producing Enterobacteriaceae by CLSI broth microdilution method; format: functional
[51] = Chemical stability in pH 7.4 potassium phosphate buffer assessed as half life for compound hydrolysis at 37 degC by UPLC and mass spectrometry; format: physicochemical

N=C(NC1CCNCC1)c1ccc(OC[C@H](O/N=C(\C(=O)N[C@@H]2C(=O)N(S(=O)(=O)O)[C@@H]2Cn2cncn2)c2csc(N)n2)C(=O)O)cc1 (stereo in doubt)
16 µg/mL: MIC (Pseudomonas aeruginosa [1])
0.125 µg/mL: MIC (Escherichia coli [2]) | MIC (Escherichia coli [6]) | MIC (Escherichia coli [9]) | MIC (Escherichia coli [10]) | MIC (Escherichia coli [16]) | MIC (Escherichia coli [19]) | MIC (Escherichia coli [25]) | MIC (Escherichia coli [31]) | MIC (Escherichia coli [32]) | MIC (Escherichia coli [35]) | MIC (Escherichia coli [36]) | MIC (Escherichia coli [37]) | MIC (Escherichia coli [38]) | MIC (Escherichia coli [40]) | MIC (Escherichia coli [46]) | MIC (Escherichia coli [47]) | MIC (Escherichia coli [49])
0.5 µg/mL: MIC (Escherichia coli [20]) | MIC (Escherichia coli [28]) | MIC (Escherichia coli [33]) | MIC (Escherichia coli [43]) | MIC (Escherichia coli [45]) | MIC (Escherichia coli [48])
8 µg/mL: MIC (Pseudomonas aeruginosa [4])
64 µg/mL: MIC (Escherichia coli [14]) | MIC (Escherichia coli [21]) | MIC (Escherichia coli [34])
1 µg/mL: MIC (Escherichia coli [3]) | MIC (Pseudomonas aeruginosa [7]) | MIC (Escherichia coli [13]) | MIC (Escherichia coli [22]) | MIC (Escherichia coli [24]) | MIC (Escherichia coli [44])
0.25 µg/mL: MIC (Escherichia coli [5]) | MIC (Escherichia coli [11]) | MIC (Escherichia coli [15]) | MIC (Escherichia coli [17]) | MIC (Escherichia coli [18]) | MIC (Escherichia coli [23]) | MIC (Escherichia coli [27]) | MIC (Escherichia coli [29]) | MIC (Escherichia coli [30]) | MIC (Escherichia coli [41])
32 µg/mL: MIC (Escherichia coli [50])
35%: inhibition [12]
2 µg/mL: MIC (Pseudomonas aeruginosa [8])
> 64 µg/mL: MIC (Escherichia coli [26]) | MIC (Escherichia coli [39]) | MIC (Escherichia coli [42])

C[C@@H](O)[C@H]1C(=O)N2C(C(=O)O)=C(S[C@@H]3CN[C@H](CNS(N)(=O)=O)C3)[C@H](C)[C@H]12 [DORIPENEM]
Non-Toxic: Activity (Mus musculus)
0%: inhibition [12]

C[C@@H](O)[C@H]1C(=O)N2C(C(=O)O)=C(SCCNC=N)C[C@H]12 [IMIPENEM ANHYDROUS]
2 to 16 µg/mL: MIC (Escherichia coli [16])
0.5 µg/mL: MIC (Escherichia coli [30])
16 µg/mL: MIC (Escherichia coli [33]) | MIC (Escherichia coli [36])
1 µg/mL: MIC (Escherichia coli [11]) | MIC (Escherichia coli [17]) | MIC (Escherichia coli [24]) | MIC (Escherichia coli [29]) | MIC (Escherichia coli [31]) | MIC (Escherichia coli [37]) | MIC (Escherichia coli [41]) | MIC (Escherichia coli [46]) | MIC (Escherichia coli [49])
0.125 µg/mL: MIC (Escherichia coli [34])
2 µg/mL: MIC (Escherichia coli [2]) | MIC (Escherichia coli [5]) | MIC (Escherichia coli [10]) | MIC (Escherichia coli [35]) | MIC (Escherichia coli [38]) | MIC (Escherichia coli [43])
15%: inhibition [12]
0.25 µg/mL: MIC (Escherichia coli [3]) | MIC (Escherichia coli [9]) | MIC (Escherichia coli [14]) | MIC (Escherichia coli [15]) | MIC (Escherichia coli [18]) | MIC (Escherichia coli [20]) | MIC (Escherichia coli [21]) | MIC (Escherichia coli [22]) | MIC (Escherichia coli [26]) | MIC (Escherichia coli [27]) | MIC (Escherichia coli [28]) | MIC (Escherichia coli [32]) | MIC (Escherichia coli [39]) | MIC (Escherichia coli [40]) | MIC (Escherichia coli [42]) | MIC (Escherichia coli [44]) | MIC (Escherichia coli [45]) | MIC (Escherichia coli [48]) | MIC (Escherichia coli [50])

C[C@@H](O)[C@H]1C(=O)N2C(C(=O)O)=C(S[C@@H]3CN[C@H](C(=O)N(C)C)C3)[C@H](C)[C@H]12 [MEROPENEM]
16 to 64 µg/mL: MIC (Escherichia coli [36])
4 µg/mL: MIC (Escherichia coli [38]) | MIC (Escherichia coli [47])
0.25 µg/mL: MIC (Escherichia coli [17])
78 h: half-life [51]
0.5 µg/mL: MIC (Escherichia coli [41])
≤ 0.06 µg/mL: MIC (Escherichia coli [9]) | MIC (Escherichia coli [13]) | MIC (Escherichia coli [14]) | MIC (Escherichia coli [15]) | MIC (Escherichia coli [19]) | MIC (Escherichia coli [20]) | MIC (Escherichia coli [21]) | MIC (Escherichia coli [23]) | MIC (Escherichia coli [26]) | MIC (Escherichia coli [27]) | MIC (Escherichia coli [28]) | MIC (Escherichia coli [30]) | MIC (Escherichia coli [34]) | MIC (Escherichia coli [39]) | MIC (Escherichia coli [40]) | MIC (Escherichia coli [42]) | MIC (Escherichia coli [44]) | MIC (Escherichia coli [45]) | MIC (Escherichia coli [50])
0.125 µg/mL: MIC (Escherichia coli [22]) | MIC (Escherichia coli [29]) | MIC (Escherichia coli [37])
≤ 0.015 µg/mL: MIC (Escherichia coli [6]) | MIC (Escherichia coli [18]) | MIC (Escherichia coli [25]) | MIC (Escherichia coli [32]) | MIC (Escherichia coli [48])
8 µg/mL: MIC (Escherichia coli [31]) | MIC (Escherichia coli [35])
1 µg/mL: MIC (Escherichia coli [10]) | MIC (Escherichia coli [11]) | MIC (Escherichia coli [24]) | MIC (Escherichia coli [46]) | MIC (Escherichia coli [49])
32 µg/mL: MIC90 (Enterobacteriaceae)
64 µg/mL: MIC (Escherichia coli [33])
2 µg/mL: MIC (Escherichia coli [2]) | MIC (Escherichia coli [5]) | MIC (Escherichia coli [16]) | MIC (Escherichia coli [43])
